Patent publication US20250152633A1, “CELLS HAVING IMPROVED PROLIFERATIVE CAPACITY AND REDUCED CELLULAR SENESCENCE” (BOARD OF REGENTS, THE UNIVERSITY OF TEXAS SYSTEM, priority 2023, published 2025)
Entries after “also recorded” stand apart in the source; their conditions may differ. Where two headings read alike, the source gives them in different places. Bridge positions count the residues as written; N and C are the ends. Ends that are not written are not given here.

Assays:
MSCs from aged donors = experiment: BrdU proliferation assay (DNA synthesis) after mechanical and chemical treatment; format: cell-based, human; settings: for DNA synthesis (BrdU assay): co-treatment with brachial loading, 5 μM KU55933 or 5 mM NAC, aged donor MSCs, vs. static control
Protocol: Cell lines and cell culture. Human mesenchymal stem cells (Promocell) were cultured in low glucose DMEM medium supplemented with 15% fetal bovine serum, L-glutamine and penicillin/streptomycin. Following trypsinization, cells were seeded on the membranes at 20,000 cells per cm^2 before mechanical loading. The cells were used between passages 4-6, unless otherwise specified. The MSCs were derived from a donor 1, unless otherwise specified. A subset of the studies were performed using MSCs from donor 2, or donor 3, or donor 4. A subset of the studies used MSCs derived from a young, healthy donor. Human umbilical vein endothelial cells (HUVECs; PromoCell GmbH) were cultured in MCDB 131 medium supplemented with 7.5% fetal bovine serum, L-glutamine and penicillin/streptomycin and EGM-2 SingleQuot Kit (Thermo Fisher Scientific, Inc.). All cells were cultured in an incubator at 37° C. under a 5% CO2 atmosphere.
Application of biomechanical treatment. Mechanical strain was applied to cell culture using a high throughput system described previously (Lee et al., 2013; Lee & Baker, 2015; Lee et al., 2020). Briefly, cells are cultured on custom made plates that are mounted on a system that applies strain. The cell culture plates were comprised of silicone membranes (0.005″ thickness; Specialty Manufacturing, Inc.) that are sandwiched between two plates, with silicone rubber gaskets at the interfaces to prevent leaking. These cell culture membranes are UV sterilized and coated with 50 μg/mL fibronectin overnight at 37° C. to allow cell adhesion. After cell attachment, the plates are mounted on to the top plate of the system using screws. To apply mechanical strain, a platen with 36 Teflon pistons is moved into the cell culture membrane. The motion is driven by a hygienically sealed, voice coil-type linear motor (Copley Controls). The platen is stabilized using six motion rails mounted with linear motion bearings. […]
BrdU Proliferation Assay. […] Absorbance was read at 450 nm using a FlexStation-3 plate reader (Molecular Devices). […]

[1] = tested on: MSCs from an aged donor one; experiment: Western blotting of protein expression after treatment of MSCs; format: cell-based, human; settings: for SIRT6 expression (Western blotting): brachial+NAC (5 mM) or KU55933 (5 μM) treatment; for DNA damage repair protein KU80 expression (Western blotting): brachial+NAC (5 mM) or brachial+KU55933 (5 μM), compared to control groups
Protocol: Application of biomechanical treatment. Mechanical strain was applied to cell culture using a high throughput system described previously (Lee et al., 2013; Lee & Baker, 2015; Lee et al., 2020). Briefly, cells are cultured on custom made plates that are mounted on a system that applies strain. The cell culture plates were comprised of silicone membranes (0.005″ thickness; Specialty Manufacturing, Inc.) that are sandwiched between two plates, with silicone rubber gaskets at the interfaces to prevent leaking. These cell culture membranes are UV sterilized and coated with 50 μg/mL fibronectin overnight at 37° C. to allow cell adhesion. After cell attachment, the plates are mounted on to the top plate of the system using screws. To apply mechanical strain, a platen with 36 Teflon pistons is moved into the cell culture membrane. The motion is driven by a hygienically sealed, voice coil-type linear motor (Copley Controls). The platen is stabilized using six motion rails mounted with linear motion bearings. The hygienically sealed motor housing has chilled water running through in order to prevent overheating during operation. Unless otherwise specified, loading was applied for 4 hours per day for 7 days with or without 1 μm the EGFR/ErbB-2/ErbB-4 Inhibitor (CAS 881001-19-0; Table 3).
Cell lysis and immunoblotting. Following the treatments, the cells were lysed in 20 mM Tris with 150 mM NaCl, 1% Triton X-100, 0.1% SDS, 2 mM sodium orthovandate, 2 mM PMSF, 50 mM NaF and a protease inhibitor cocktail (Roche, Inc.). The proteins were separated on a NuPAGE 10% bis-tris midi gel (Novex) and transferred to nitrocellulose membrane using iBlot transfer stack (Novex). The membranes were blocked for one hour in 5% non-fat milk in PBS with 0.01% tween-20 (PBST). After washing twice in PBST, cells were incubated with primary antibodies (Table 1) overnight in 1% non-fat milk at 4° C. The membranes were washed with PBST and incubated at room temperature for two hours with secondary antibody. The membrane was treated with chemiluminescent substrate (SuperSignal West Femto; Thermo Fisher Scientific, Inc.) then imaged using a digital imaging system (Cell Biosciences, Inc.).
(§1) Conditioning of hMSCs using biochemical factors. For mechanistic experiments involving chemical factors and biological inhibitors, cells were incubated with the chemical treatments as shown in Table 3. The cells were treated with mechanical loading for 4 hours/day under brachial waveform at 0.1 Hz and 7.5% maximum strain or cultured under static conditions. The culture media containing the treatments were replaced on day 3 and day 5 for all 7-day treatments.

[2] = tested on: MSCs from three young, healthy donors; experiment: RNA-seq analysis of senescence-related gene sets; format: cell-based, human; settings: brachial loading and E/E inhibitor; young donor MSCs; age-, oncogenic-, stress-, developmental- and inflammation-related senescence gene sets
Protocol: To investigate the treatments' effects on gene expression patterns that are correlated with senescence in MSCs, MSCs were obtained from three young, healthy donors, and conditioned with brachial loading and E/E inhibitor. Following the treatments, RNA-seq analysis was performed on the cells, and the expression of several key gene sets related to various mechanisms of senescence in MSCs was evaluated. These gene sets were identified through a thorough investigation of the literature as key mediators of MSC senescence, and the expression pattern of each gene as it pertains to MSC senescence was documented (Zhou et al., 2020; Brandl et al., 2011; Turinetto et al., 2016; Ozkul & Galderisi, 2016; Fridman & Tainsky, 2008; Ki et al., 2014; Cakouros & Gronthos, 2019; Peffers et al., 2016). […] Next, a gene set enrichment analysis (GSEA) was performed on the RNA-seq data. […] In all three senescence-related gene sets, a reduction in senescence related genes with brachial mechanical loading was observed (FIG. 1).
RNA Sequencing and Analysis. […] For sequencing, single reads of 50 base pairs were performed after poly-A mRNA capture using the Poly(A) Tailing Kit (Ambion) and Ultra II Directional RNA Library Prep Kit (NEB) to isolate mRNA and perform dUTP directional preparation of the mRNA library. […]

MSCs from young donors [3] = settings: 1 μM inhibitor as cotreatment with brachial loading; cited from earlier work
MSCs from young donors [4] = settings: 1 μM inhibitor as cotreatment with brachial loading, tube formation assay, cited from earlier work
MSCs from an aged donor = experiment: p-γ-H2AX DNA double-strand break repair foci immunostaining; format: cell-based, human; settings: for p-γ-H2AX foci, treatment of static control cells vs. static treatment alone: 4 hours static, 3 μM GsMTx4, 2 μM Dooku 1
Protocol: Immunocytochemical staining on silicone membranes. Following the treatments, the cells were fixed in 4% paraformaldehyde in PBS for 10 minutes followed by washing and permeabilization with 0.1% Triton X-100 PBS for 5 minutes. Next, samples were blocked with PBS containing 5% FBS and 1% BSA for 40 minutes. After washing, cells were incubated with primary antibodies (see Table 2 for specific antibodies and concentrations) in PBS with 1% BSA overnight at 4° C. The samples were then washed twice in PBS with 1% BSA and incubated with secondary antibodies in PBS with 1% BSA for 2 hours in a light protected environment. Cells treated with extensive washes with PBS with 1% BSA prior to mounting in anti-fade media (Vector Laboratories, Inc.). The samples were then imaged using confocal microscopy with a LSM 710 laser scanning confocal microscope (Carl Zeiss, Inc.).
p-γ-H2AX Foci Analysis. Following confocal imaging, images were analyzed with FIJI software to count p-γ-H2AX histone foci. Three-dimensional image stacks were maximum intensity projected to generate two-dimensional images with 12-bit range of 0-4095. Background signal outside of nuclei boundaries was measured and subtracted from the image. Individual cell nuclei regions of interest were selected, and an intensity threshold of 300 bits was applied. The Analyze Particle plugin was applied to count the p-γ-H2AX foci in each nucleus, with a minimum particle size of 0.5 μm applied. At least 100 individual cell nuclei were analyzed for each treatment group to calculate the mean foci count per cell, mean foci count per nuclear area, and standard errors.
as §1

aged MSCs = experiment: β-Galactosidase staining of senescent cell phenotypes; format: cell-based, human; settings: 5 mM NAC or 5 μM KU55933, with or without brachial loading; vs. static control
Protocol: Conditioning of hMSCs using biochemical factors. For mechanistic experiments involving chemical factors and biological inhibitors, cells were incubated with the chemical treatments as shown in Table 3. The cells were treated with mechanical loading for 4 hours/day under brachial waveform at 0.1 Hz and 7.5% maximum strain or cultured under static conditions. The culture media containing the treatments were replaced on day 3 and day 5 for all 7-day treatments. β-Galactosidase Analysis. Following the treatments, cell culture media was removed, and cells were washed once with PBS. Cells were fixed and stained for β-Galactosidase following the protocol of the Senescence β-Galactosidase Staining Kit (Cell Signaling Technologies). Following staining, cells were stored with 70% glycerol and imaged using a light microscope (Meiji, Inc.). Images were post-processed in Adobe Photoshop to increase image contrast and visibility of β-Galactosidase+ cells. Total cells and β-Galactosidase+ cells were manually counted in FIJI, with at least 1,000 cells counted per treatment group.

CC#CC(=O)Nc1cc2c(Nc3ccc(F)c(Cl)c3)ncnc2cn1 [E/E inhibitor]
DNA synthesis (BrdU proliferation assay) (MSCs from aged donors; brachial loading 7.5% strain, 4 hours per day for 7 days + 1 μM E/E inhibitor, MSCs from three donors (68-92 years), relative to static control): increased DNA synthesis in two of three donor lines | expression of antioxidant enzyme SOD1 (Western blotting) ([1]; brachial loading and E/E inhibitor treatments, aged donor one MSCs): significantly upregulated expression | oxidative stress signaling protein expression, FOX0 transcription factors (Western blotting) ([1]; brachial+E/E inhibitor, 4 hours per day for 7 days, aged donor one MSCs, vs. static control): upregulation of FOX01, p-FOX01, FOX03a, p-FOX03a, and p-FOX04 | Sirtuin protein expression (Western blotting) ([1]; brachial+E/E treatment, donor one MSCs, in comparison to static control): upregulation of p-SIRT1, SIRT6, and SIRT7 | senescence-related gene expression patterns (RNA-seq) [2]: reversed the effects implicated by senescence | MSCs that expressed the markers for both endothelial cells and pericytes (MSCs from young donors [3]): dramatic increase | angiogenic activity / angiogenic properties of MSCs (MSCs from young donors [4]; listed as EGFR/ErbB-2/4 (E/E) inhibitor): enhanced angiogenic activity | angiogenic activity / angiogenic properties of MSCs (MSCs from young donors [4]; listed as EGFR/ErbB-2/4 (E/E)): synergistically enhances the angiogenic properties

CC(Nc1nc(N2CCCC2)nc2ccccc12)c1ccccc1 (stereo not drawn) [Importazole]
p-γ-H2AX foci, co-treatment with brachial loading vs. brachial loading alone (MSCs from an aged donor; 4 hours brachial loading, 40 μM Importazole): significantly more p-γ-H2AX foci than treatment with brachial loading alone

O=c1cc(-c2cccc3c2Sc2ccccc2S3)oc(N2CCOCC2)c1 [KU55933]
DNA synthesis (BrdU assay) (MSCs from aged donors): significantly higher DNA synthesis | SIRT6 expression (Western blotting) ([1]; vs. static control): no significant change | DNA damage repair protein KU80 expression (Western blotting) [1]: remained statistically unchanged

CC(=O)N[C@@H](CS)C(=O)O [NAC, N-acetyl-L cysteine]
DNA synthesis (BrdU assay) (MSCs from aged donors): not under brachial+NAC treatment; also recorded: a reduction of proliferative enhancement was observed | SIRT6 expression (Western blotting) ([1]; vs. static control): significant upregulation | DNA damage repair protein KU80 expression (Western blotting) [1]: remained statistically unchanged | percentage of β-galactosidase+ cells (aged MSCs): significant reduction

Dooku1
p-γ-H2AX foci, treatment of static control cells vs. static treatment alone (MSCs from an aged donor): significantly more p-γ-H2AX foci than static treatment alone

GsMTx4: directly inhibits Piezo1 channel activity (Tocris 4912) (GCLEFWWKCNPNDDKCCRPKLKCSKLFKLCNFSF; disulfide 16-30, 2-17, 9-23; not fully specified (C-terminus); ends not checked; UniProt Q7YT39 47-80, looked up)
p-γ-H2AX foci, treatment of static control cells vs. static treatment alone (MSCs from an aged donor): significantly more p-γ-H2AX foci than static treatment alone
